Values joined by “and” are separate entries in the source; they are usually repeats but may differ in a detail not shown here. Equal values may be shown once.
Experiments:
[1] = MALDI imaging and penetration analysis in centrally necrotizing granulomas; conditions: for BTZ-043 distribution in granulomas by MALDI imaging: IL-13tg mice
[2] = Impact of γ-irradiation on BTZ-043 in spiked liver mimetic tissue cryosections; design: species or system mouse; conditions: for ng/mg lung tissue, technical replicate 1 / ng/mg lung tissue, technical replicate 2 / Extract concentration, technical replicate 1 / Extract concentration, technical replicate 2 / ng/mg lung tissue, Mean: BTZ-043 spiked liver homogenate section (9.7 µg/g); for Extract concentration, technical replicate 1 / Extract concentration, technical replicate 2: LC-MS/MS; for ng/mg lung tissue, Mean: mean of technical replicates
[3] = tested on: Mtb H37Rv; experiment: Ziehl-Neelsen staining and histology of centrally necrotizing granulomas in IL-13tg mice; assay type: in vivo, Mycobacterium tuberculosis; conditions: 250 mg/kg/day 10 days, versus untreated
Procedure: Cryosections were fixed with 4% paraformaldehyde/PBS (24 h or 1 h for non-irradiated or irradiated sections, respectively) prior to staining with haematoxylin and eosin (HE), ZN or Heidenhain’s azan trichrome. For immunohistochemical analysis ZN stained cryosections were probed with rabbit polyclonal CD68 antibody (1:200, ab125212, Abcam, Cambridge, UK) which was detected with biotinylated goat anti-rabbit antibody (1:100, 111-065-144, Jackson Immunoresearch, Suffolk, UK)[13]. To visualize lipid droplets, irradiated cryosections were fixed (10% ice-cold formalin/PBS), washed with 60% 2-propanol, and incubated in Oil Red O solution (O0625, Sigma-Aldrich, Taufkirchen, Germany). After washing (60% 2-propanol and water), Gill’s haematoxylin was used for counterstaining. Images were acquired on a BX41 light microscope (Olympus, Hamburg, Germany) using cellSens imaging software (Olympus, Hamburg, Germany) or NIS-Elements software (Nikon, Badhoevedorp, The Netherlands). Post MALDI imaging HE staining was performed with the following protocol[40]: the matrix layer was washed off with MeOH. Rehydrated (2 min in 100%, 70%, 40% EtOH then 100% H2O) samples were submerged in Mayers haematoxylin solution for 12 min followed by 10 min submersion in Na2CO3 (1%) and rinsed with distilled water. Counterstaining was performed by 2-min submersion in 0.5% acidified eosin Y.

## C[C@H]1COC2(CCN(c3nc(=O)c4cc(C(F)(F)F)cc([N+](=O)[O-])c4s3)CC2)O1 [BTZ-043]
[1]; 0.5 h and 2 h after the last administration
  BTZ-043 distribution in granulomas by MALDI imaging: higher intensity in the layer of foamy macrophages than in the surrounding tissue and a low intensity in the necrotic center
[1]; 4 h after the last administration
  BTZ-043 distribution in granulomas by MALDI imaging: evenly distributed across the granuloma, including a full penetration of the necrotic center
[1]; 8 h post-dose
  BTZ-043 distribution in granulomas by MALDI imaging: still detected in the cellular compartment and the necrotic center of the lesion
[1]; IL-13tg mouse, 2 h post-dose, 10 µm pixel size
  BTZ-043 distribution in lung section by MALDI imaging: higher abundance in the granuloma areas
[1]; Left Granuloma, Distance 5 μm
  Mean intensity: 139.49
[1]; Left Granuloma, Distance 15 μm
  Mean intensity: 156.7
[1]; Left Granuloma, Distance 25 μm
  Mean intensity: 198.34
[1]; Left Granuloma, Distance 455 μm
  Mean intensity: 231.69
[1]; Left Granuloma, Distance 465 μm
  Mean intensity: 177.77
[1]; Left Granuloma, Distance 475 μm
  Mean intensity: 149.66
[1]; Left Granuloma, Distance 485 μm
  Mean intensity: 141.47
[1]; Left Granuloma, Distance 495 μm
  Mean intensity: 108.37
[1]; Left Granuloma, Distance -5 μm
  Mean intensity: 119.73
[1]; Left Granuloma, Distance -15 μm
  Mean intensity: 101.17
[1]; Left Granuloma, Distance -25 μm
  Mean intensity: 94.994
[1]; Left Granuloma, Distance -35 μm
  Mean intensity: 92.517
[1]; Left Granuloma, Distance -45 μm
  Mean intensity: 79.172
[1]; Left Granuloma, Distance -55 μm
  Mean intensity: 80.027
[1]; Left Granuloma, Distance -65 μm
  Mean intensity: 75.696
[1]; Left Granuloma, Distance -75 μm
  Mean intensity: 68.605
[1]; Left Granuloma, Distance -85 μm
  Mean intensity: 57.747
[1]; Left Granuloma, Distance -95 μm
  Mean intensity: 55.134
[1]; Left Granuloma, Distance -105 μm
  Mean intensity: 53.791
[1]; Left Granuloma, Distance -115 μm
  Mean intensity: 50.259
[1]; Left Granuloma, Distance -125 μm
  Mean intensity: 46.467
[1]; Left Granuloma, Distance -135 μm
  Mean intensity: 47.503
[1]; Left Granuloma, Distance -145 μm
  Mean intensity: 45.623
[1]; Left Granuloma, Distance -155 μm
  Mean intensity: 45.907
[1]; Left Granuloma, Distance -165 μm
  Mean intensity: 44.835
[1]; Left Granuloma, Distance -175 μm
  Mean intensity: 48.409
[1]; Left Granuloma, Distance -185 μm
  Mean intensity: 51.437
[1]; Left Granuloma, Distance -195 μm
  Mean intensity: 54.977
[1]; Left Granuloma, Distance -205 μm
  Mean intensity: 58.044
[1]; Left Granuloma, Distance -215 μm
  Mean intensity: 59.813
[1]; Left Granuloma, Distance -225 μm
  Mean intensity: 62.899
[1]; Left Granuloma, Distance -235 μm
  Mean intensity: 60.823
[1]; Left Granuloma, Distance -245 μm
  Mean intensity: 67.44
[1]; Left Granuloma, Distance -255 μm
  Mean intensity: 69.7
[1]; Left Granuloma, Distance -265 μm
  Mean intensity: 69.289
[1]; Left Granuloma, Distance -275 μm
  Mean intensity: 70.893
[1]; Left Granuloma, Distance -285 μm
  Mean intensity: 72.505
[1]; Left Granuloma, Distance -295 μm
  Mean intensity: 79.349
[1]; Left Granuloma, Distance -305 μm
  Mean intensity: 78.856
[1]; Left Granuloma, Distance -315 μm
  Mean intensity: 77.402
[1]; Left Granuloma, Distance -325 μm
  Mean intensity: 81.899
[1]; Left Granuloma, Distance -335 μm
  Mean intensity: 87.061
[1]; Left Granuloma, Distance -345 μm
  Mean intensity: 86.34
[1]; Left Granuloma, Distance -355 μm
  Mean intensity: 78.295
[1]; Left Granuloma, Distance -365 μm
  Mean intensity: 77.954
[1]; Left Granuloma, Distance -375 μm
  Mean intensity: 75.379
[1]; Left Granuloma, Distance -385 μm
  Mean intensity: 74.434
[1]; Left Granuloma, Distance -395 μm
  Mean intensity: 71.834
[1]; Left Granuloma, Distance -405 μm
  Mean intensity: 68.248
[1]; Left Granuloma, Distance -415 μm
  Mean intensity: 72.627
[1]; Left Granuloma, Distance -425 μm
  Mean intensity: 59.053
[1]; Left Granuloma, Distance -435 μm
  Mean intensity: 63.125
[1]; Left Granuloma, Distance -445 μm
  Mean intensity: 62.385
[1]; Right Granuloma, Distance 5 μm
  Mean intensity: 197.71
[1]; Right Granuloma, Distance 15 μm
  Mean intensity: 215.58
[1]; Right Granuloma, Distance -5 μm
  Mean intensity: 125.01
[1]; Right Granuloma, Distance -15 μm
  Mean intensity: 127.96
[1]; Right Granuloma, Distance -25 μm
  Mean intensity: 106.25
[1]; Right Granuloma, Distance -35 μm
  Mean intensity: 89.663
[1]; Right Granuloma, Distance -45 μm
  Mean intensity: 81.533
[1]; Right Granuloma, Distance -55 μm
  Mean intensity: 68.214
[1]; Right Granuloma, Distance -65 μm
  Mean intensity: 66.172
[1]; Right Granuloma, Distance -75 μm
  Mean intensity: 61.043
[1]; Right Granuloma, Distance -85 μm
  Mean intensity: 54.281
[1]; Right Granuloma, Distance -95 μm
  Mean intensity: 56.521
[1]; Right Granuloma, Distance -105 μm
  Mean intensity: 53.591
[1]; Right Granuloma, Distance -115 μm
  Mean intensity: 52.38
[1]; Right Granuloma, Distance -125 μm
  Mean intensity: 54.234
[1]; Right Granuloma, Distance -135 μm
  Mean intensity: 48.899
[1]; Right Granuloma, Distance -145 μm
  Mean intensity: 60.041
[1]; Right Granuloma, Distance -155 μm
  Mean intensity: 59.51
[1]; Right Granuloma, Distance -165 μm
  Mean intensity: 58.931
[1]; Right Granuloma, Distance -175 μm
  Mean intensity: 63.443
[1]; Right Granuloma, Distance -185 μm
  Mean intensity: 66.482
[1]; Right Granuloma, Distance -195 μm
  Mean intensity: 69.634
[1]; Right Granuloma, Distance -205 μm
  Mean intensity: 66.172
[1]; Right Granuloma, Distance -215 μm
  Mean intensity: 74.546
[1]; Right Granuloma, Distance -225 μm
  Mean intensity: 72.092
[1]; Right Granuloma, Distance -235 μm
  Mean intensity: 66.755
[1]; Right Granuloma, Distance -245 μm
  Mean intensity: 74.961
[1]; Right Granuloma, Distance -255 μm
  Mean intensity: 64.422
[1]; Right Granuloma, Distance -265 μm
  Mean intensity: 67.123
[1]; Right Granuloma, Distance -275 μm
  Mean intensity: 62.093
[1]; Right Granuloma, Distance -285 μm
  Mean intensity: 63.383
[1]; Right Granuloma, Distance -295 μm
  Mean intensity: 60.578
[1]; Right Granuloma, Distance -305 μm
  Mean intensity: 57.529
[1]; Right Granuloma, Distance -315 μm
  Mean intensity: 54.535
[1]; Right Granuloma, Distance -325 μm
  Mean intensity: 51.043
[1]; Right Granuloma, Distance -335 μm
  Mean intensity: 51.438
[1]; Right Granuloma, Distance -345 μm
  Mean intensity: 52.76
[1]; Right Granuloma, Distance -355 μm
  Mean intensity: 52.538
[1]; Right Granuloma, Distance -365 μm
  Mean intensity: 48.918
[1]; Right Granuloma, Distance -375 μm
  Mean intensity: 51.113
[1]; Right Granuloma, Distance -385 μm
  Mean intensity: 46.016
[1]; Right Granuloma, Distance -395 μm
  Mean intensity: 55.943
[1]; Right Granuloma, Distance -405 μm
  Mean intensity: 55.946
[1]; Right Granuloma, Distance -415 μm
  Mean intensity: 56.244
[1]; Right Granuloma, Distance -425 μm
  Mean intensity: 54.068
[1]; Right Granuloma, Distance -435 μm
  Mean intensity: 59.943
[1]; Right Granuloma, Distance -445 μm
  Mean intensity: 57.116
[2]; irradiation
  ng/mg lung tissue, technical replicate 1: 5.99 ng/mg and 26 ng/mg and 6.57 ng/mg and 6.4 ng/mg and 5.5 ng/mg and 5.14 ng/mg and 5.58 ng/mg
  ng/mg lung tissue, technical replicate 2: 6.75 ng/mg and 23.9 ng/mg and 6.81 ng/mg and 5.4 ng/mg and 6.51 ng/mg and 6.42 ng/mg
  Extract concentration, technical replicate 1: 0.0193 µg/mL and 0.079 µg/mL and 0.0196 µg/mL and 0.0194 µg/mL and 0.0175 µg/mL and 0.0152 µg/mL and 0.0178 µg/mL
  Extract concentration, technical replicate 2: 0.0218 µg/mL and 0.0727 µg/mL and 0.0207 µg/mL and 0.0172 µg/mL and 0.0193 µg/mL and 0.0205 µg/mL
  ng/mg lung tissue, Mean: 6.37 ng/mg and 6.57 ng/mg and 6.6 ng/mg and 5.45 ng/mg and 5.82 ng/mg and 6 ng/mg
[2]; no irradiation
  ng/mg lung tissue, technical replicate 1: 6.1 ng/mg and 5.48 ng/mg and 7.3 ng/mg and 4.22 ng/mg and 6.84 ng/mg and 6.88 ng/mg and 6.26 ng/mg
  ng/mg lung tissue, technical replicate 2: 6.14 ng/mg and 6.24 ng/mg and 7.55 ng/mg and 4.89 ng/mg and 8.49 ng/mg and 7.42 ng/mg and 7.29 ng/mg
  Extract concentration, technical replicate 1: 0.0195 µg/mL and 0.0179 µg/mL and 0.0233 µg/mL and 0.0135 µg/mL and 0.0216 µg/mL and 0.0204 µg/mL and 0.0187 µg/mL
  Extract concentration, technical replicate 2: 0.0197 µg/mL and 0.0204 µg/mL and 0.0241 µg/mL and 0.0156 µg/mL and 0.0268 µg/mL and 0.0221 µg/mL and 0.0218 µg/mL
  ng/mg lung tissue, Mean: 6.12 ng/mg and 5.86 ng/mg and 7.42 ng/mg and 4.56 ng/mg and 7.66 ng/mg and 7.15 ng/mg and 6.78 ng/mg
[2]; BTZ-043 spiked liver homogenate section, no irradiation, injections 1 and a, internal standard reserpine
  Conc. (Targetlynx export, sample extract): 1.87E-02
[2]; liver mimetic cryosections, 5.85 kGy
  impact of γ-irradiation on the concentration and distribution of BTZ-043: does not impact
[2]; spiked liver mimetic tissue, rout method outlier
  BTZ-043 concentration in liver mimetic cryosection, outlier removed: 24.95 ng/mg
[3]
  acid fast bacilli (AFB) within centrally necrotizing granulomas (ZN staining): most notable reduction in AFB within the layer of foamy macrophages
